Columns and labels:
Format in all cases: functional
SNB-19 = experiment: Growth inhibition of human SNB19 cells assessed as cell growth at 10^-6 M after 48 hrs by sulforhodamine B assay; details: SNB-19, 48 h, read-out: Activity
MOLT-4 [1] = experiment: Growth inhibition of human MOLT4 cells assessed as cell growth at 10^-5 M after 48 hrs by sulforhodamine B assay; details: MOLT-4, 48 h, read-out: Activity
HCT-116 = experiment: Growth inhibition of human HCT116 cells assessed as cell growth at 10^-8 M after 48 hrs by sulforhodamine B assay; details: HCT-116, 48 h, read-out: Activity
LOX IMVI = experiment: Growth inhibition of human LOXIMVI cells assessed as cell growth at 10^-8 M after 48 hrs by sulforhodamine B assay; details: read-out: Activity
[2] = Growth inhibition of human HCC2998 cells assessed as cell growth at 10^-4 M after 48 hrs by sulforhodamine B assay; details: HCC 2998, 48 h, read-out: Activity
UACC-62 = experiment: Growth inhibition of human UACC62 cells assessed as cell growth at 10^-7 M after 48 hrs by sulforhodamine B assay; details: UACC-62, 48 h, read-out: Activity
UO-31 = experiment: Growth inhibition of human UO31 cells assessed as cell growth at 10^-5 M after 48 hrs by sulforhodamine B assay; details: UO-31, 48 h, read-out: Activity
[3] = Growth inhibition of human NCI-ADR-RES cells assessed as cell growth at 10^-5 M after 48 hrs by sulforhodamine B assay; details: read-out: Activity
[4] = Growth inhibition of human Hs 578T cells assessed as cell growth at 10^-6 M after 48 hrs by sulforhodamine B assay; details: read-out: Activity
NCI-H522 = experiment: Growth inhibition of human NCI-H522 cells assessed as cell growth at 10^-5 M after 48 hrs by sulforhodamine B assay; details: NCI-H522, 48 h, read-out: Activity
Malme-3M = experiment: Growth inhibition of human MALME-3M cells assessed as cell growth at 10^-5 M after 48 hrs by sulforhodamine B assay; details: read-out: Activity
HT-29 = experiment: Growth inhibition of human HT-29 cells assessed as cell growth at 10^-7 M after 48 hrs by sulforhodamine B assay; details: HT-29, 48 h, read-out: Activity
[5] = Growth inhibition of human Hs 578T cells assessed as cell growth at 10^-5 M after 48 hrs by sulforhodamine B assay; details: read-out: Activity
HOP-62 [6] = experiment: Growth inhibition of human HOP62 cells assessed as cell growth at 10^-6 M after 48 hrs by sulforhodamine B assay; details: HOP-62, 48 h, read-out: Activity
HOP-62 [7] = experiment: Growth inhibition of human HOP62 cells assessed as cell growth at 10^-4 M after 48 hrs by sulforhodamine B assay; details: HOP-62, 48 h, read-out: Activity
T47D = experiment: Growth inhibition of human T47D cells assessed as cell growth at 10^-6 M after 48 hrs by sulforhodamine B assay; details: read-out: Activity
NCI-H322M = experiment: Growth inhibition of human NCI-H322M cells assessed as cell growth at 10^-7 M after 48 hrs by sulforhodamine B assay; details: read-out: Activity
RPMI-8226 = experiment: Growth inhibition of human RPMI8226 cells assessed as cell growth at 10^-7 M after 48 hrs by sulforhodamine B assay; details: RPMI-8226, 48 h, read-out: Activity
SF-295 = experiment: Growth inhibition of human SF295 cells assessed as cell growth at 10^-6 M after 48 hrs by sulforhodamine B assay; details: SF-295, 48 h, read-out: Activity
SK-OV-3 = experiment: Growth inhibition of human SKOV3 cells assessed as cell growth at 10^-7 M after 48 hrs by sulforhodamine B assay; details: SK-OV-3, 48 h, read-out: Activity
A549 = experiment: Growth inhibition of human A549/ATCC cells assessed as cell growth at 10^-4 M after 48 hrs by sulforhodamine B assay; details: A549, 48 h, read-out: Activity
PC-3 [8] = experiment: Growth inhibition of human PC3 cells assessed as cell growth at 3X10'-5 M after 48 hrs by sulforhodamine B assay; details: PC-3, 48 h, read-out: Activity
SW-620 = experiment: Growth inhibition of human SW620 cells assessed as cell growth at 3X10'-8 M after 48 hrs by sulforhodamine B assay; details: SW-620, 48 h, read-out: Activity
[9] = Growth inhibition of human HCC2998 cells assessed as cell growth at 3X10'-5 M after 48 hrs by sulforhodamine B assay; details: HCC 2998, 48 h, read-out: Activity
CAKI-1 = experiment: Growth inhibition of human CAKI-1 cells assessed as cell growth at 3X10'-8 M after 48 hrs by sulforhodamine B assay; details: CAKI-1, 48 h, read-out: Activity
MOLT-4 [10] = experiment: Growth inhibition of human MOLT4 cells assessed as cell growth at 3X10'-7 M after 48 hrs by sulforhodamine B assay; details: MOLT-4, 48 h, read-out: Activity
SF-539 = experiment: Growth inhibition of human SF539 cells assessed as cell growth at 3X10'-9 M after 48 hrs by sulforhodamine B assay; details: SF-539, 48 h, read-out: Activity
SK-MEL-5 = experiment: Growth inhibition of human SK-MEL-5 cells assessed as cell growth at 3X10'-7 M after 48 hrs by sulforhodamine B assay; details: SK-MEL-5, 48 h, read-out: Activity
KM12 [11] = experiment: Growth inhibition of human KM12 cells assessed as cell growth at 3X10'-7 M after 48 hrs by sulforhodamine B assay; details: KM12, 48 h, read-out: Activity
NCI-H23 = experiment: Growth inhibition of human NCI-H23 cells assessed as cell growth at 3X10'-7 M after 48 hrs by sulforhodamine B assay; details: NCI-H23, 48 h, read-out: Activity
NCI-H460 = experiment: Growth inhibition of human NCI-H460 cells assessed as cell growth at 3X10'-7 M after 48 hrs by sulforhodamine B assay; details: NCI-H460, 48 h, read-out: Activity
KM12 [12] = experiment: Growth inhibition of human KM12 cells assessed as cell growth at 3X10'-6 M after 48 hrs by sulforhodamine B assay; details: KM12, 48 h, read-out: Activity
PC-3 [13] = experiment: Growth inhibition of human PC3 cells assessed as cell growth at 3X10'-7 M after 48 hrs by sulforhodamine B assay; details: PC-3, 48 h, read-out: Activity
786-0 = experiment: Growth inhibition of human 786-0 cells assessed as cell growth at 3X10'-6 M after 48 hrs by sulforhodamine B assay; details: 786-0, 48 h, read-out: Activity
HOP-92 = experiment: Growth inhibition of human HOP92 cells assessed as cell growth at 3X10'-5 M after 48 hrs by sulforhodamine B assay; details: HOP-92, 48 h, read-out: Activity
A498 = experiment: Growth inhibition of human A498 cells assessed as cell growth at 3X10'-9 M after 48 hrs by sulforhodamine B assay; details: A498, 48 h, read-out: Activity
DU-145 = experiment: Growth inhibition of human DU145 cells assessed as cell growth at 3X10'-8 M after 48 hrs by sulforhodamine B assay; details: DU-145, 48 h, read-out: Activity

Question: Which growth at 1 µM (SNB-19) does the source give for `COc1cc(-c2nn(-c3cccc(NC(=O)c4ccccc4)c3)cc2-c2ccncc2)ccc1Cl` here?
Answer: 47%

Question: What about the growth at 10 µM (MOLT-4 [1]) of the same compound?
Answer: 18%

Question: What about the growth at 0.01 µM (HCT-116) of the same compound?
Answer: 97%

Question: What about the growth at 0.01 µM (LOX IMVI) of the same compound?
Answer: 94%

Question: And the growth at 100 µM [2]?
Answer: -13%

Question: What about the growth at 0.1 µM (UACC-62) of the same compound?
Answer: 96%

Question: What about the growth at 10 µM (UO-31) of the same compound?
Answer: 18%

Question: What about the growth at 10 µM [3] of the same compound?
Answer: 5%

Question: What about the growth at 1 µM [4] of the same compound?
Answer: 52%

Question: What about the growth at 10 µM (NCI-H522) of the same compound?
Answer: 4%

Question: What about the growth at 10 µM (Malme-3M) of the same compound?
Answer: 8%

Question: And the growth at 0.1 µM (HT-29)?
Answer: 98%

Question: What about the growth at 10 µM [5] of the same compound?
Answer: 18%

Question: What about the growth at 1 µM (HOP-62 [6]) of the same compound?
Answer: 72%

Question: And the growth at 100 µM (HOP-62 [7])?
Answer: 31%

Question: What about the growth at 1 µM (T47D) of the same compound?
Answer: 58%

Question: What about the growth at 0.1 µM (NCI-H322M) of the same compound?
Answer: 85%

Question: What about the growth at 0.1 µM (RPMI-8226) of the same compound?
Answer: 96%

Question: What about the growth at 1 µM (SF-295) of the same compound?
Answer: 15%

Question: And the growth at 0.1 µM (SK-OV-3)?
Answer: 95%

Question: What about the growth at 100 µM (A549) of the same compound?
Answer: 6%

Question: Which growth at 30 µM (PC-3 [8]) does the source give for `O=C(Nc1cccc(-n2cc(-c3ccncc3)c(-c3ccc(Cl)c(O)c3)n2)c1)Nc1ccc(Cl)c(Cl)c1` here?
Answer: 1%

Question: And the growth at 0.03 µM (SW-620)?
Answer: 98%

Question: What about the growth at 30 µM [9] of the same compound?
Answer: -27%

Question: What about the growth at 0.03 µM (CAKI-1) of the same compound?
Answer: 94%

Question: What about the growth at 0.3 µM (MOLT-4 [10]) of the same compound?
Answer: 101%

Question: And the growth at 0.003 µM (SF-539)?
Answer: 92%

Question: And the growth at 0.3 µM (SK-MEL-5)?
Answer: 90%

Question: What about the growth at 0.3 µM (KM12 [11]) of the same compound?
Answer: 90%

Question: What about the growth at 0.3 µM (NCI-H23) of the same compound?
Answer: 102%

Question: What about the growth at 0.3 µM (NCI-H460) of the same compound?
Answer: 95%

Question: And the growth at 3 µM (KM12 [12])?
Answer: 9%

Question: What about the growth at 0.3 µM (PC-3 [13]) of the same compound?
Answer: 81%

Question: What about the growth at 3 µM (786-0) of the same compound?
Answer: 74%

Question: What about the growth at 30 µM (HOP-92) of the same compound?
Answer: -31%

Question: What about the growth at 0.003 µM (A498) of the same compound?
Answer: 103%

Question: And the growth at 0.03 µM (DU-145)?
Answer: 100%

Question: For `O=C(Nc1cccc(-n2cc(-c3ccncc3)c(-c3ccc(Cl)c(O)c3)n2)c1)Nc1cccc(C(F)(F)F)c1`, which growth at 30 µM (PC-3 [8]) is on record?
Answer: -3%

Question: What about the growth at 0.03 µM (SW-620) of the same compound?
Answer: 95%

Question: What about the growth at 30 µM [9] of the same compound?
Answer: 1%

Question: What about the growth at 0.03 µM (CAKI-1) of the same compound?
Answer: 94%

Question: And the growth at 0.3 µM (MOLT-4 [10])?
Answer: 97%

Question: And the growth at 0.003 µM (SF-539)?
Answer: 100%

Question: And the growth at 0.3 µM (SK-MEL-5)?
Answer: 99%

Question: What about the growth at 0.3 µM (KM12 [11]) of the same compound?
Answer: 97%

Question: What about the growth at 0.3 µM (NCI-H23) of the same compound?
Answer: 96%

Question: And the growth at 0.3 µM (NCI-H460)?
Answer: 94%

Question: What about the growth at 3 µM (KM12 [12]) of the same compound?
Answer: 20%

Question: What about the growth at 0.3 µM (PC-3 [13]) of the same compound?
Answer: 82%

Question: And the growth at 3 µM (786-0)?
Answer: 58%

Question: And the growth at 30 µM (HOP-92)?
Answer: -33%

Question: What about the growth at 0.003 µM (A498) of the same compound?
Answer: 92%

Question: What about the growth at 0.03 µM (DU-145) of the same compound?
Answer: 99%

Question: For `COc1cc(-c2nn(-c3cccc(NC(=O)Nc4ccc(Cl)c(C(F)(F)F)c4)c3)cc2-c2ccncc2)ccc1Cl`, which growth at 30 µM (PC-3 [8]) is on record?
Answer: -20%

Question: What about the growth at 0.03 µM (SW-620) of the same compound?
Answer: 100%

Question: What about the growth at 30 µM [9] of the same compound?
Answer: -48%

Question: And the growth at 0.03 µM (CAKI-1)?
Answer: 94%

Question: What about the growth at 0.3 µM (MOLT-4 [10]) of the same compound?
Answer: 90%

Question: What about the growth at 0.003 µM (SF-539) of the same compound?
Answer: 97%

Question: What about the growth at 0.3 µM (SK-MEL-5) of the same compound?
Answer: 87%

Question: And the growth at 0.3 µM (KM12 [11])?
Answer: 95%

Question: What about the growth at 0.3 µM (NCI-H23) of the same compound?
Answer: 97%

Question: And the growth at 0.3 µM (NCI-H460)?
Answer: 101%

Question: What about the growth at 3 µM (KM12 [12]) of the same compound?
Answer: 7%

Question: What about the growth at 0.3 µM (PC-3 [13]) of the same compound?
Answer: 80%

Question: And the growth at 3 µM (786-0)?
Answer: 28%

Question: What about the growth at 30 µM (HOP-92) of the same compound?
Answer: -46%

Question: What about the growth at 0.003 µM (A498) of the same compound?
Answer: 90%

Question: What about the growth at 0.03 µM (DU-145) of the same compound?
Answer: 105%
